Experiment [1] addresses T1, full-length beta-Catenin (Uniprot ID P35222) (Homo sapiens, UniProt P35222).
T1 construct: 10 nM full-length beta-Catenin (Uniprot ID P35222)
T1 sequence (P35222 1-781): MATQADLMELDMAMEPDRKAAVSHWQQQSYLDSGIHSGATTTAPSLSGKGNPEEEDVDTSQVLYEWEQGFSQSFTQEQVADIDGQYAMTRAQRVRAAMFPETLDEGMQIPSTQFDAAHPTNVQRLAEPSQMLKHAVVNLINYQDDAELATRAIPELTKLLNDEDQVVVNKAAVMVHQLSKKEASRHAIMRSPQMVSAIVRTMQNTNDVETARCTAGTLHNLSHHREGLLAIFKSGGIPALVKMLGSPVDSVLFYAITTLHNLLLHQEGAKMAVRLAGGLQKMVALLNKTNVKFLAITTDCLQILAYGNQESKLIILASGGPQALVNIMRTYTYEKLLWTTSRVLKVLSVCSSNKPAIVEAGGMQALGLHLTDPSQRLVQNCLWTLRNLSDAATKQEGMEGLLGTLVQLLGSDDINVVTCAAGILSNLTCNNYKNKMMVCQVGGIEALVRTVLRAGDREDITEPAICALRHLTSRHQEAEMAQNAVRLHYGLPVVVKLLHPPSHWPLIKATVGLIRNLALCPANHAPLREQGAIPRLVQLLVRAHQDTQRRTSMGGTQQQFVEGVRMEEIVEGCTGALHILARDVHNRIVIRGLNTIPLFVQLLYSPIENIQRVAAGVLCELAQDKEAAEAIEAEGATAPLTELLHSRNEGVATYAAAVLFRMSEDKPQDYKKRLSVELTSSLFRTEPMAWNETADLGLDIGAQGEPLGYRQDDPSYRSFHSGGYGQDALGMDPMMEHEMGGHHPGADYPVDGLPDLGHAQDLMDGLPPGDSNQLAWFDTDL
Nature of the experiment: Fluorescence polarization IC50 (beta-catenin / 5FAM-TCF4 10-53 competition). Type of experiment: binding. The following applies: fluorescence polarization; read-out: beta-Catenin FP IC50. In general terms: Fluorescence polarisation rises when a labelled molecule tumbles more slowly, as on binding a larger partner.

Experiment [2] deals with T2, beta-catenin/TCF4 engagement (Homo sapiens, UniProt P35222).
T2 construct: expressed in transfected cells; host or cells: HEK293
T2 sequence (P35222 1-781): T1 sequence (P35222 1-781)
As to the kind of experiment: Nano-BRET target engagement assay (B-cat-Halo & TCF4-Luc in HEK293 cells). The settings on record: absolute IC50; read-out: NanoBRET Abs IC50. Type of experiment: cell-based.

One may read the IC50 as the concentration at which inhibition is half-maximal. For `CC(=O)N1CCC[C@]12CCCCCCC1(CCCCCCCCOC(=O)N3CC[C@@](C(=O)N[C@@H](Cc4ccccc4C)C(=O)N[C@@H](Cc4csc5ccccc45)C(=O)N[C@@H](CCC(N)=O)C(N)=O)(C3)NC(=O)[C@H](CC(C)C)NC(=O)[C@H](Cc3ccccc3)NC(=O)[C@H](C)NC(=O)[C@H](C)NC(=O)[C@H](CN(CC(=O)O)CC(F)(F)F)NC(=O)[C@H](CC(=O)O)NC1=O)NC(=O)[C@H](CC(C)(C)C)NC(=O)[C@H](CC(=O)O)NC2=O` (stereo partly drawn) [I-1726, Ac-PL3-Asp-Npg-B5-Asp-TfeGA-Ala-Ala-Phe-Leu-PyrS2-2MeF-BztA-Gln-NH2], the IC50 was 0.274 µM in experiment [1] and > 20 µM in experiment [2].

Turning to `CC(=O)N1CCC[C@]12CC=CCCCC1(CCCC=CCCCOC(=O)N3CC[C@@](C(=O)N[C@@H](Cc4ccsc4)C(=O)N[C@@H](Cc4csc5ccccc45)C(=O)N[C@@H](CCC(N)=O)C(N)=O)(C3)NC(=O)[C@H](CC(C)C)NC(=O)[C@H](Cc3ccccc3)NC(=O)[C@H](C)NC(=O)[C@H](C)NC(=O)[C@H](CNCC(=O)O)NC(=O)[C@H](CC(=O)O)NC1=O)NC(=O)[C@H](CC(C)(C)C)NC(=O)[C@H](CC(=O)O)NC2=O` (stereo partly drawn) [I-1731, Ac-PL3-Asp-Npg-B5-Asp-GA-Ala-Ala-Phe-Leu-PyrS2-3Thi-BztA-Gln-NH2], the half-inhibitory concentration (IC50) came to 0.025 µM in experiment [1] and 29.5 µM in experiment [2].

Regarding `CC(=O)N1CCC[C@]12CC=CCCCC1(CCCC=CCCCOC(=O)N3CC[C@@](C(=O)N[C@@H](Cc4ccsc4)C(=O)N[C@@H](Cc4csc5ccccc45)C(=O)N[C@@H](CCC(N)=O)C(N)=O)(C3)NC(=O)[C@H](CC(N)=O)NC(=O)[C@H](Cc3ccccc3)NC(=O)[C@H](C)NC(=O)[C@H](C)NC(=O)[C@H](CNCC(=O)O)NC(=O)[C@H](CC(=O)O)NC1=O)NC(=O)[C@H](CC(C)(C)C)NC(=O)[C@H](CC(=O)O)NC2=O` (stereo partly drawn) [I-1732, Ac-PL3-Asp-Npg-B5-Asp-GA-Ala-Ala-Phe-Asn-PyrS2-3Thi-BztA-Gln-NH2], the concentration for half-maximal inhibition (IC50) was 0.011 µM in experiment [1] and > 20 µM in experiment [2].

On to `CC(=O)N1CCC[C@]12CC=CCCCC1(CCCC=CCCCOC(=O)N3CC[C@@](C(=O)N[C@@H](Cc4ccsc4)C(=O)N[C@@H](Cc4csc5ccccc45)C(=O)N[C@@H](CCC(N)=O)C(N)=O)(C3)NC(=O)[C@H](CC(N)=O)NC(=O)[C@H](Cc3ccccc3)NC(=O)[C@H](C)NC(=O)[C@H](C)NC(=O)[C@H](CNCC(=O)O)NC(=O)[C@H](CC(=O)O)NC1=O)NC(=O)[C@H](CC(C)(C)C)NC(=O)[C@H](CC(=O)O)NC2=O` (stereo partly drawn) [I-1733, Ac-PL3-Asp-Npg-B5-Asp-GA-Ala-Ala-Phe-Asn-PyrS2-3Thi-BztA-Gln-NH2], for which the figures for the half-maximal inhibitory concentration (IC50) in experiment [1] and in experiment [2] were 0.015 µM and > 20 µM, respectively.

As to `CC(=O)N1CCC[C@]12CC=CCCCC1(CCCC=CCCCOC(=O)N3CC[C@@](C(=O)N[C@@H](Cc4ccsc4)C(=O)N[C@@H](Cc4csc5ccccc45)C(=O)N[C@@H](CC(C)C)C(N)=O)(C3)NC(=O)[C@H](CC(C)C)NC(=O)[C@H](Cc3ccccc3)NC(=O)[C@H](C)NC(=O)[C@H](C)NC(=O)[C@H](CN(CC(=O)O)CC(F)(F)F)NC(=O)[C@H](CC(=O)O)NC1=O)NC(=O)[C@H](CC(C)(C)C)NC(=O)[C@H](CC(=O)O)NC2=O` (stereo partly drawn) [I-1747, Ac-PL3-Asp-Npg-B5-Asp-TfeGA-Ala-Ala-Phe-Leu-PyrS2-3Thi-BztA-Leu-NH2], the values for the 50% inhibitory concentration (IC50) in experiment [1] and in experiment [2] were 0.187 µM and > 20 µM, respectively.

Regarding `CC(=O)N1CCC[C@]12CC=CCCCC1(CCCC=CCCCOC(=O)N3CC[C@@](C(=O)N[C@@H](Cc4ccsc4)C(=O)N[C@@H](Cc4csc5ccccc45)C(=O)N[C@@H](CC(C)C)C(N)=O)(C3)NC(=O)[C@H](CC(C)C)NC(=O)[C@H](Cc3ccccc3)NC(=O)[C@H](C)NC(=O)[C@H](C)NC(=O)[C@H](CN(CC(=O)O)CC(F)(F)F)NC(=O)[C@H](CC(=O)O)NC1=O)NC(=O)[C@H](CC(C)(C)C)NC(=O)[C@H](CC(=O)O)NC2=O` (stereo partly drawn) [I-1748, Ac-PL3-Asp-Npg-B5-Asp-TfeGA-Ala-Ala-Phe-Leu-PyrS2-3Thi-BztA-Leu-NH2], the IC50 in experiment [1] came out at 0.141 µM; in experiment [2], 20.2 µM.

`CC(=O)N1CCC[C@]12CC=CCCCC1(CCCC=CCCCOC(=O)N3CC[C@@](C(=O)N[C@@H](Cc4ccsc4)C(=O)N[C@@H](Cc4csc5ccccc45)C(=O)N[C@@H](Cc4ccccc4)C(N)=O)(C3)NC(=O)[C@H](CC(C)C)NC(=O)[C@H](Cc3ccccc3)NC(=O)[C@H](C)NC(=O)[C@H](C)NC(=O)[C@H](CN(CC(=O)O)CC(F)(F)F)NC(=O)[C@H](CC(=O)O)NC1=O)NC(=O)[C@H](CC(C)(C)C)NC(=O)[C@H](CC(=O)O)NC2=O` (stereo partly drawn) [I-1750, Ac-PL3-Asp-Npg-B5-Asp-TfeGA-Ala-Ala-Phe-Leu-PyrS2-3Thi-BztA-Phe-NH2]: the concentration for half-maximal inhibition (IC50) amounted to 0.104 µM in experiment [1] and 23.7 µM in experiment [2].

On to `CC(=O)N1CCC[C@]12CC=CCCCC1(CCCC=CCCCOC(=O)N3CC[C@@](C(=O)N[C@@H](Cc4ccsc4)C(=O)N[C@@H](Cc4csc5ccccc45)C(=O)N[C@@H](CC(C)C)C(N)=O)(C3)NC(=O)[C@H](CC(C)C)NC(=O)[C@H](Cc3ccccc3)NC(=O)[C@H](C)NC(=O)[C@H](CCCCNC(C)C)NC(=O)[C@H](CN(CC(=O)O)CC(F)(F)F)NC(=O)[C@H](CC(=O)O)NC1=O)NC(=O)[C@H](CC(C)(C)C)NC(=O)[C@H](CC(=O)O)NC2=O` (stereo partly drawn) [I-1759, Ac-PL3-Asp-Npg-B5-Asp-TfeGA-iPrLys-Ala-Phe-Leu-PyrS2-3Thi-BztA-Leu-NH2], for which the IC50 is 0.057 µM in experiment [1] and > 20 µM in experiment [2].

With `CC(=O)N1CCC[C@]12CC=CCCCC1(CCCC=CCCCOC(=O)N3CC[C@@](C(=O)N[C@@H](Cc4ccsc4)C(=O)N[C@@H](Cc4csc5ccccc45)C(=O)N[C@@H](CC(C)C)C(N)=O)(C3)NC(=O)[C@H]([C@@H](C)O)NC(=O)[C@H](Cc3ccccc3)NC(=O)[C@H](C)NC(=O)[C@H](CCCCNC(C)C)NC(=O)[C@H](CN(CC(=O)O)CC(F)(F)F)NC(=O)[C@H](CC(=O)O)NC1=O)NC(=O)[C@H](CC(C)(C)C)NC(=O)[C@H](CC(=O)O)NC2=O` (stereo partly drawn) [I-1760, Ac-PL3-Asp-Npg-B5-Asp-TfeGA-iPrLys-Ala-Phe-Thr-PyrS2-3Thi-BztA-Leu-NH2], the values for the IC50 in experiment [1] and in experiment [2] were 0.032 µM and > 20 µM, respectively.

With `CC(=O)N1CCC[C@]12CC=CCCCC1(CCCC=CCCCOC(=O)N3CC[C@@](C(=O)N[C@@H](Cc4ccsc4)C(=O)N[C@@H](Cc4csc5ccccc45)C(=O)N[C@@H](Cc4ccccc4)C(N)=O)(C3)NC(=O)[C@H](CC(C)C)NC(=O)[C@H](Cc3ccccc3)NC(=O)[C@H](C)NC(=O)[C@H](CCCCNC(C)C)NC(=O)[C@H](CN(CC(=O)O)CC(F)(F)F)NC(=O)[C@H](CC(=O)O)NC1=O)NC(=O)[C@H](CC(C)(C)C)NC(=O)[C@H](CC(=O)O)NC2=O` (stereo partly drawn) [I-1761, Ac-PL3-Asp-Npg-B5-Asp-TfeGA-iPrLys-Ala-Phe-Leu-PyrS2-3Thi-BztA-Phe-NH2], the IC50 is 0.039 µM in experiment [1] and > 20 µM in experiment [2].

Regarding `CC(=O)N1CCC[C@]12CC=CCCCC1(CCCC=CCCCOC(=O)N3CC[C@@](C(=O)N[C@@H](Cc4ccsc4)C(=O)N[C@@H](Cc4csc5ccccc45)C(=O)N[C@@H](Cc4ccccc4)C(N)=O)(C3)NC(=O)[C@H]([C@@H](C)O)NC(=O)[C@H](Cc3ccccc3)NC(=O)[C@H](C)NC(=O)[C@H](CCCCNC(C)C)NC(=O)[C@H](CN(CC(=O)O)CC(F)(F)F)NC(=O)[C@H](CC(=O)O)NC1=O)NC(=O)[C@H](CC(C)(C)C)NC(=O)[C@H](CC(=O)O)NC2=O` (stereo partly drawn) [I-1762, Ac-PL3-Asp-Npg-B5-Asp-TfeGA-iPrLys-Ala-Phe-Thr-PyrS2-3Thi-BztA-Phe-NH2], the 50% inhibitory concentration (IC50) in experiment [1] was 0.013 µM; in experiment [2], > 20 µM.

`CC(=O)N1CCC[C@]12CC=CCCCC1(CCCC=CCCCOC(=O)N3CC[C@@](C(=O)N[C@@H](Cc4ccsc4)C(=O)N[C@@H](Cc4csc5ccccc45)C(=O)N[C@H](C(N)=O)C(C)C)(C3)NC(=O)[C@H](CC(C)C)NC(=O)[C@H](Cc3ccccc3)NC(=O)[C@H](C)NC(=O)[C@H](CCCCNC(C)C)NC(=O)[C@H](CN(CC(=O)O)CC(F)(F)F)NC(=O)[C@H](CC(=O)O)NC1=O)NC(=O)[C@H](CC(C)(C)C)NC(=O)[C@H](CC(=O)O)NC2=O` (stereo partly drawn) [I-1763, Ac-PL3-Asp-Npg-B5-Asp-TfeGA-iPrLys-Ala-Phe-Leu-PyrS2-3Thi-BztA-Val-NH2]: the concentration for half-maximal inhibition (IC50) in experiment [1] is 0.052 µM; in experiment [2], > 20 µM.

Consider `CC(=O)N1CCC[C@]12CC=CCCCC1(CCCC=CCCCOC(=O)N3CC[C@@](C(=O)N[C@@H](Cc4ccsc4)C(=O)N[C@@H](Cc4csc5ccccc45)C(=O)N[C@H](C(N)=O)C(C)C)(C3)NC(=O)[C@H]([C@@H](C)O)NC(=O)[C@H](Cc3ccccc3)NC(=O)[C@H](C)NC(=O)[C@H](CCCCNC(C)C)NC(=O)[C@H](CN(CC(=O)O)CC(F)(F)F)NC(=O)[C@H](CC(=O)O)NC1=O)NC(=O)[C@H](CC(C)(C)C)NC(=O)[C@H](CC(=O)O)NC2=O` (stereo partly drawn) [I-1764, Ac-PL3-Asp-Npg-B5-Asp-TfeGA-iPrLys-Ala-Phe-Thr-PyrS2-3Thi-BztA-Val-NH2], for which the IC50 was 0.023 µM in experiment [1] and > 20 µM in experiment [2].

The values are drawn from patent US20240116985A1, “STAPLED PEPTIDES AND METHODS THEREOF” (priority 2020, published 2024).
